Measurements from patent publication US10144732B2 (BIOGEN MA INC., priority 2014, dated 2018).
“And” between values parts separate entries of the source, which are not always exact repeats. Equal entries are not always repeated.

What follows are compounds tested against T1, Human ATX protein (Homo sapiens, UniProt Q13822) (assay: ATX biochemical assay (FRET, FS-3 substrate)). Details: FRET assay, FS-3 2 μM, ATX 1.0 μg/mL, 30 minutes preincubation, 2 hours reaction at room temperature; read-out: IC50.
T1 construct: made in house
In short: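 FRET read-out: cleavage of FS-3 (2 μM final) unquenches fluorescein, measured at 485/538 nm after 2 h at room temperature. Before substrate addition, in-house-expressed human autotaxin (1.0 μg/mL) sat with compound for 30 min in pH 7.4 Tris/NaCl/KCl/CaCl2/MgCl2 buffer containing fatty acid free-BSA at 1 mg/mL.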

SMILES	IC50
O=C(NC12CCC(C(=O)O)(CC1)CC2)N1CCc2c(C(F)(F)F)nn(Cc3ccc(Cl)cc3F)c2C1 [Example 5-8, 4-(1-(4-Chloro-2-fluorobenzyl)-3-(trifluoromethyl)-4,5,6,7-tetrahydro-1H-pyrazolo[3,4-c]pyridine-6-carboxamido)bicyclo[2.2.2]octane-I-carboxylic acid]	≤ 100 nM
CN(C(=O)N1CCc2c(C(F)(F)F)nn(Cc3ccc(Cl)cc3F)c2C1)[C@H]1CC[C@@H](C(=O)O)CC1 [Example 5-9, cis-4-(1-(4-Chloro-2-fluorobenzyl)-N-methyl-3-(trifluoromethyl)-4,5,6,7-tetrahydro-1H-pyrazolo[3,4-c]pyridine-6-carboxamido)cyclohexanecarboxylic acid]	≤ 100 nM
CN(C(=O)N1CCc2c(C(F)(F)F)nn(Cc3ccc(Cl)cc3F)c2C1)[C@H]1CC[C@H](C(=O)O)CC1 [Example 5-10, trans-4-(1-(4-Chloro-2-fluorobenzyl)-N-methyl-3-(trifluoromethyl)-4,5,6,7-tetrahydro-1H-pyrazolo[3,4-c]pyridine-6-carboxamido)cyclohexanecarboxylic acid]	≤ 100 nM
O=C(O)C12CCC(C(=O)N3CCc4c(C(F)(F)F)nn(Cc5ccc(F)cc5)c4C3)(CC1)CC2 [Example 5-11, 4-(1-(4-Fluorobenzyl)-3-(trifluoromethyl)-4,5,6,7-tetrahydro-1H-pyrazolo[3,4-c]pyridine-6-carbonyl)bicyclo[2.2.2]octane-1-carboxylic acid]	≤ 100 nM
O=C(CC12CCC(C(=O)O)(CC1)CC2)N1CCc2c(C(F)(F)F)nn(Cc3ccc(Cl)cc3F)c2C1 [Example 5-12, 4-(2-(1-(4-Chloro-2-fluorobenzyl)-3-(trifluoromethyl)-4,5-dihydro-1H-pyrazolo[3,4-c]pyridin-6(7H)-yl)-2-oxoethyl)bicyclo[2.2.2]octane-1-carboxylic acid]	≤ 100 nM
O=C(CC12CCC(C(=O)O)(CC1)CC2)N1CCc2c(C(F)(F)F)nn(Cc3ccc(F)cc3)c2C1 [Example 5-13, 4-(2-(1-(4-Fluorobenzyl)-3-(trifluoromethyl)-4,5-dihydro-1H-pyrazolo[3,4-c]pyridin-6(7H)-yl)-2-oxoethyl)bicyclo[2.2.2]octane-1-carboxylic acid]	≤ 100 nM
Cc1ccc(Cn2nc(C(F)(F)F)c3c2CN(C(=O)C[C@H]2CC[C@H](C(=O)O)CC2)CC3)cc1 [Example 5-14, trans-4-(2-(1-(4-Methylbenzyl)-3-(trifluoromethyl)-4,5-dihydro-1H-pyrazolo[3,4-c]pyridin-6(7H)-yl)-2-oxoethyl)cyclohexanecarboxylic acid]	≤ 100 nM
COc1ccc(Cn2nc(C(F)(F)F)c3c2CN(C(=O)C[C@H]2CC[C@H](C(=O)O)CC2)CC3)cc1 [Example 5-15, trans-4-(2-(1-(4-Methoxylbenzyl)-3-(trifluoromethyl)-4,5-dihydro-1H-pyrazolo[3,4-c]pyridin-6(7H)-yl)-2-oxoethyl)cyclohexanecarboxylic acid]	≤ 100 nM
O=C(C[C@H]1CC[C@H](C(=O)O)CC1)N1CCc2c(C(F)(F)F)nn(CCc3ccccc3)c2C1 [Example 5-16, trans-4-(2-Oxo-2-(1-phenethyl-3-(trifluoromethyl)-4,5-dihydro-1H-pyrazolo[3,4-c]pyridin-6(7H)-yl)ethyl)cyclohexanecarboxylic acid]	100 to 250 nM
O=C(C[C@H]1CC[C@H](C(=O)O)CC1)N1CCc2c(C(F)(F)F)nn(Cc3ccc(Cl)s3)c2C1 [Example 5-17, trans-4-(2-(1-((5-chlorothiophen-2-yl)methyl)-3-(trifluoromethyl)-4,5-dihydro-1H-pyrazolo[3,4-c]pyridin-6(7H)-yl)-2-oxoethyl)cyclohexanecarboxylic acid]	≤ 100 nM
CC(C)(C)OC(=O)N1CC(CC(=O)N2CCc3c(C(F)(F)F)nn(Cc4ccc(Cl)cc4F)c3C2)C[C@H]1C(=O)O (stereo partly drawn) [Example 5-18, (2S)-1-(tert-Butoxycarbonyl)-4-(2-(1-(4-chloro-2-fluorobenzyl)-3-(trifluoromethyl)-4,5-dihydro-1H-pyrazolo[3,4-c]pyridin-6(7H)-yl)-2-oxoethyl)pyrrolidine-2-carboxylic acid]	≤ 100 nM
CC(c1ccc(F)cc1)n1nc(C(F)(F)F)c2c1CN(C(=O)C[C@H]1CC[C@H](C(=O)O)CC1)CC2 (stereo partly drawn) [Example 5-19, trans-4-(2-(1-(1-(4-Fluorophenyl)ethyl)-3-(trifluoromethyl)-4,5-dihydro-1H-pyrazolo[3,4-c]pyridin-6(7H)-yl)-2-oxoethyl)cyclohexanecarboxylic acid]	≤ 100 nM
CC(c1ccc(F)cc1)n1nc(C(F)(F)F)c2c1CN(C(=O)C[C@H]1CC[C@@H](C(=O)O)CC1)CC2 (stereo partly drawn) [Example 5-20, cis-4-(2-(1-(1-(4-Fluorophenyl)ethyl)-3-(trifluoromethyl)-4,5-dihydro-1H-pyrazolo[3,4-c]pyridin-6(7H)-yl)-2-oxoethyl)cyclohexanecarboxylic acid]	≤ 100 nM
O=C(C[C@H]1CC[C@H](C(=O)O)CC1)N1CCc2c(C(F)(F)F)nn(Cc3cccnc3)c2C1 [Example 5-22, trans-4-(2-Oxo-2-(1-(pyridin-3-ylmethyl)-3-(trifluoromethyl)-4,5-dihydro-1H-pyrazolo[3,4-c]pyridin-6(7H)-yl)ethyl)cyclohexanecarboxylic acid]	≤ 100 nM
O=C(C[C@H]1CC[C@H](C(=O)O)CC1)N1CCc2c(C(F)(F)F)nn(Cc3ccccn3)c2C1 [Example 5-23, trans-4-(2-Oxo-2-(1-(pyridin-2-ylmethyl)-3-(trifluoromethyl)-4,5-dihydro-1H-pyrazolo[3,4-c]pyridin-6(7H)-yl)ethyl)cyclohexanecarboxylic acid]	100 to 250 nM
O=C(C[C@H]1CC[C@H](C(=O)O)CC1)N1CCc2c(C(F)(F)F)nn(Cc3ccncc3)c2C1 [Example 5-24, trans-4-(2-Oxo-2-(1-(pyridin-4-ylmethyl)-3-(trifluoromethyl)-4,5-dihydro-1H-pyrazolo[3,4-c]pyridin-6(7H)-yl)ethyl)cyclohexanecarboxylic acid]	≤ 100 nM
O=C(C[C@H]1CC[C@@H](C(=O)O)CC1)N1CCc2c(C(F)(F)F)nn(Cc3ccc(Cl)s3)c2C1 [Example 5-25, cis-4-(2-(1-((5-Chlorothiophen-2-yl)methyl)-3-(trifluoromethyl)-4,5-dihydro-1H-pyrazolo[3,4-c]pyridin-6(7H)-yl)-2-oxoethyl)cyclohexanecarboxylic acid]	≤ 100 nM
O=C(C[C@H]1CC[C@H](C(=O)O)CC1)N1CCc2c(C(F)(F)F)nn(Cc3cccs3)c2C1 [Example 5-26, trans-4-(2-Oxo-2-(1-(thiophen-2-ylmethyl)-3-(trifluoromethyl)-4,5-dihydro-1H-pyrazolo[3,4-c]pyridin-6(7H)-yl)ethyl)cyclohexanecarboxylic acid]	≤ 100 nM
O=C(C[C@H]1CC[C@H](C(=O)O)CC1)N1CCc2c(C(F)(F)F)nn(Cc3ccsc3)c2C1 [Example 5-27, trans-4-(2-Oxo-2-(1-(thiophen-3-ylmethyl)-3-(trifluoromethyl)-4,5-dihydro-1H-pyrazolo[3,4-c]pyridin-6(7H)-yl)ethyl)cyclohexanecarboxylic acid]	≤ 100 nM
O=C(C[C@H]1CC[C@H](C(=O)O)CC1)N1CCc2c(C(F)(F)F)nn(Cc3cncs3)c2C1 [Example 5-28, trans-4-(2-Oxo-2-(1-(thiazol-5-ylmethyl)-3-(trifluoromethyl)-4,5-dihydro-1H-pyrazolo[3,4-c]pyridin-6(7H)-yl)ethyl)cyclohexanecarboxylic acid]	≤ 100 nM
O=C(C[C@H]1CC[C@H](C(=O)O)CC1)N1CCc2c(C(F)(F)F)nn(Cc3cncnc3)c2C1 [Example 5-29, trans-4-(2-Oxo-2-(1-(pyrimidin-5-ylmethyl)-3-(trifluoromethyl)-4,5-dihydro-1H-pyrazolo[3,4-c]pyridin-6(7H)-yl)ethyl)cyclohexanecarboxylic acid]	> 500 nM and ≤ 10000 nM
O=C(C[C@H]1CC[C@H](C(=O)O)CC1)N1CCc2c(C(F)(F)F)nn(Cc3ccc(F)cc3F)c2C1 [Example 5-30, trans-4-(2-(1-(2,4-Difluorobenzyl)-3-(trifluoromethyl)-4,5-dihydro-1H-pyrazolo[3,4-c]pyridin-6(7H)-yl)-2-oxoethyl)cyclohexanecarboxylic acid]	≤ 100 nM
O=C(C[C@H]1CC[C@H](C(=O)O)CC1)N1CCc2c(C(F)(F)F)nn(Cc3ccc(F)c(F)c3)c2C1 [Example 5-31, trans-4-(2-(1-(3,4-Difluorobenzyl)-3-(trifluoromethyl)-4,5-dihydro-1H-pyrazolo[3,4-c]pyridin-6(7H)-yl)-2-oxoethyl)cyclohexanecarboxylic acid]	≤ 100 nM
O=C(C[C@H]1CC[C@H](C(=O)O)CC1)N1CCc2c(C(F)(F)F)nn(Cc3cc(F)c(F)cc3F)c2C1 [Example 5-32, trans-4-(2-(1-(2,4,5-Trifluorobenzyl)-3-(trifluoromethyl)-4,5-dihydro-1H-pyrazolo[3,4-c]pyridin-6(7H)-yl)-2-oxoethyl)cyclohexanecarboxylic acid]	≤ 100 nM
O=C(C[C@H]1CC[C@H](C(=O)O)CC1)N1CCc2c(C(F)(F)F)nn(Cc3cc(F)c(F)c(F)c3)c2C1 [Example 5-33, trans-4-(2-(1-(3,4,5-Trifluorobenzyl)-3-(trifluoromethyl)-4,5-dihydro-1H-pyrazolo[3,4-c]pyridin-6(7H)-yl)-2-oxoethyl)cyclohexanecarboxylic acid]	≤ 100 nM
O=C(C[C@H]1CC[C@@H](C(=O)O)CC1)N1CCc2c(C(F)(F)F)nn(Cc3ccc(F)cc3F)c2C1 [Example 5-34, cis-4-(2-(1-(2,4-Difluorobenzyl)-3-(trifluoromethyl)-4,5-dihydro-1H-pyrazolo[3,4-c]pyridin-6(7H)-yl)-2-oxoethyl)cyclohexanecarboxylic acid]	≤ 100 nM
CC1CCC(Cn2nc(C(F)(F)F)c3c2CN(C(=O)C[C@H]2CC[C@H](C(=O)O)CC2)CC3)CC1 (stereo partly drawn) [Example 5-37, trans-4-(2-(1-((4-Methylcyclohexyl)methyl)-3-(trifluoromethyl)-4,5-dihydro-1H-pyrazolo[3,4-c]pyridin-6(7H)-yl)-2-oxoethyl)cyclohexanecarboxylic acid]	≤ 100 nM
